The target of assay [1] is T1, baculovirus-expressed ALK (Homo sapiens, UniProt Q9UM73).
T1 construct: host or cells: baculovirus expression system
As to the kind of experiment: ALK Kinase Assay (ELISA-type, time-resolved fluorescence). The assay is classed as biochemical. The following applies: ALK kinase inhibition, 1 μM ATP; read-out: ALK Activity. The method, boiled down: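 Plates coated with phospholipase C-γ substrate (10 μg/mL in TBS); reaction started with 30 ng/ml ALK and run 15 min at 37° C. Phosphorylated substrate detected with Eu-N1-labeled PT66 antibody. IC50 from sigmoidal variable-slope fit of percent inhibition vs log concentration.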
(In general: An ELISA detects its analyte on a solid surface through an enzyme-linked reagent.)

The target in assay [2] is T2, c-Met (cytoplasmic domain) (Homo sapiens, UniProt P08581).
T2 construct: 10 ng/mL c-Met (cytoplasmic domain, Invitrogen Corporation #PV3143); purchased Invitrogen Corporation PV3143
T2 sequence (P08581 956-1390 limits assumed): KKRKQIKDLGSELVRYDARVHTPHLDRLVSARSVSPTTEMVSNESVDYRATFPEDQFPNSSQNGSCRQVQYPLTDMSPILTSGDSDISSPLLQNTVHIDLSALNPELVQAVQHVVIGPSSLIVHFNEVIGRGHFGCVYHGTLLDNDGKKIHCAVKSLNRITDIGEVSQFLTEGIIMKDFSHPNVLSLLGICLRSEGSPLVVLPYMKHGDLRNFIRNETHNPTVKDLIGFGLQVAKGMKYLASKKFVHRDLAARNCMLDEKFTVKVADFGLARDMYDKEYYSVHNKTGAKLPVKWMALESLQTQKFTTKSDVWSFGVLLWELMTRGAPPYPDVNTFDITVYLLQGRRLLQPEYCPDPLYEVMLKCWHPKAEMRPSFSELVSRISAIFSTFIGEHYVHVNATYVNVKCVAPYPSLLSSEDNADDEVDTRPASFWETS
The experiment in a line: c-Met Kinase Assay (same methods as for ALK, with modifications). The following applies: c-Met kinase inhibition, 1 μM ATP; read-out: cMet Activity. It counts as biochemical. An outline of the steps: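 Europium-labeled PT66 antibody (Eu-N1) detects substrate phosphorylation on wells coated with phospholipase C-γ at 10 μg/mL. The kinase, the cytoplasmic domain of c-Met at 10 ng/mL, starts the reaction, which proceeds 15 minutes at 37° C.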

Some results are limits rather than exact numbers.

T1 sequence (Q9UM73 19-1620): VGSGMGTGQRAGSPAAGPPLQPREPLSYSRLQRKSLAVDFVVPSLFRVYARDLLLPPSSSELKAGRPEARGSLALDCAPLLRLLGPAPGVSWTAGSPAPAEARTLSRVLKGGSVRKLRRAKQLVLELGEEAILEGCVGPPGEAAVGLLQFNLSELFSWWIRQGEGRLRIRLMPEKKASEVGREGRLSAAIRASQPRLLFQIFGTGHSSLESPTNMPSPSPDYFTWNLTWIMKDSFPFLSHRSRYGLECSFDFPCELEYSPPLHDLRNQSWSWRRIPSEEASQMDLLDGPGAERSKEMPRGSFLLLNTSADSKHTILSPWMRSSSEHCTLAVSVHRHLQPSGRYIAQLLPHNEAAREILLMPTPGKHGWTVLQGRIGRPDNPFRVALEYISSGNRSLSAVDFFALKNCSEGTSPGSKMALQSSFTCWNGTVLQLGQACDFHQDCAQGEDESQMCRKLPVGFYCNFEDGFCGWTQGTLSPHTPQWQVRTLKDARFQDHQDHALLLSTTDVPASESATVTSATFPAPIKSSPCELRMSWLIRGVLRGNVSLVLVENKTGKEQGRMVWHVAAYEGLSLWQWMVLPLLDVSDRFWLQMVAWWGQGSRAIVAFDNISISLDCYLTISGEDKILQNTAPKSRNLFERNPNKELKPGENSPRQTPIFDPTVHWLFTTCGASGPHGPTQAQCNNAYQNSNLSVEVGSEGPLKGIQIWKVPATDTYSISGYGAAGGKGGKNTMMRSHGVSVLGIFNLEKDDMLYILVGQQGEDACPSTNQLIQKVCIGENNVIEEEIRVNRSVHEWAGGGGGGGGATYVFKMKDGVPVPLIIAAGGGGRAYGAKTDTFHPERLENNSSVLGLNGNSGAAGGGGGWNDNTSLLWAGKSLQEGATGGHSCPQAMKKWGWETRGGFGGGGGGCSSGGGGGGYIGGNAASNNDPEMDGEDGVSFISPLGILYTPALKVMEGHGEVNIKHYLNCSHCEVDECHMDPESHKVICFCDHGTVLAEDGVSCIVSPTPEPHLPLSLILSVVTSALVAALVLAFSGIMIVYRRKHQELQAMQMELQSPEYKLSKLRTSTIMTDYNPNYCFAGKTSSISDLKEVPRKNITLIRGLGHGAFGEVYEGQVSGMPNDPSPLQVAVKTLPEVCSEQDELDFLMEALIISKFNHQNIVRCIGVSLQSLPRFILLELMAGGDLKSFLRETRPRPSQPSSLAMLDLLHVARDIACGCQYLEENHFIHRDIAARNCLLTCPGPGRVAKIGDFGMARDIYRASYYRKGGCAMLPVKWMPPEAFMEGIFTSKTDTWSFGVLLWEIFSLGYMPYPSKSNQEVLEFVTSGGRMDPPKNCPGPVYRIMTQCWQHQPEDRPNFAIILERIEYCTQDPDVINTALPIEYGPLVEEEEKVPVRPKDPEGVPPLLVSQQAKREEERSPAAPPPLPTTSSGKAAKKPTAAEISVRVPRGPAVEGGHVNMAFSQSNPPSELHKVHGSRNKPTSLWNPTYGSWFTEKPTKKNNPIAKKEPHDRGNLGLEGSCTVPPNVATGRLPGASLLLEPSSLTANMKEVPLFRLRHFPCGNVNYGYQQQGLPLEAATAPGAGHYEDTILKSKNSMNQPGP

As to `C#CCNC(=O)c1cc(F)cc(F)c1Nc1nc(Nc2ccc3c(c2)N(C(=O)N2CCCC2)CCCC3(C)C)ncc1Cl` [Example 1622, 2-{5-Chloro-2-[5,5-dimethyl-1-(pyrrolidine-1-carbonyl)-2,3,4,5-tetrahydro-1H-benzo[b]azepin-8-ylamino]-pyrimidin-4-ylamino}-3,5-difluoro-N-prop-2-ynyl-benzamide], the IC50 in assay [1] is 1000 to 10000 nM; in assay [2], 100 to 1000 nM.
Turning to `C#CCNC(=O)c1sccc1Nc1nc(Nc2ccc3c(c2)NC(=O)CCC3(C)C)ncc1Cl` [Example 1623, 3-[5-Chloro-2-(5,5-dimethyl-2-oxo-2,3,4,5-tetrahydro-1H-benzo[b]azepin-8-ylamino)-pyrimidin-4-ylamino]-thiophene-2-carboxylic acid prop-2-ynylamide], the IC50 is 100 to 1000 nM in assay [1] and above 10000 nM in assay [2].
The corresponding values for `CNC(=O)c1cc(-c2cnn(C)c2)cc(F)c1Nc1nc(Nc2ccc3c(c2)NC(=O)CCC3(C)C)ncc1Cl` [Example 1624, 2-[5-Chloro-2-(5,5-dimethyl-2-oxo-2,3,4,5-tetrahydro-1H-benzo[b]azepin-8-ylamino)-pyrimidin-4-ylamino]-3-fluoro-N-methyl-5-(1-methyl-1H-pyrazol-4-yl)-benzamide] are below 100 nM and below 100 nM.
Take `CN(C)[C@@H]1CCN(S(=O)(=O)c2ccccc2Nc2nc(Nc3ccc4c(c3)NC(=O)CCC4(C)C)ncc2Cl)C1` [Example 1625, 8-{5-Chloro-4-[2-((R)-3-dimethylamino-pyrrolidine-1-sulfonyl)-phenylamino]-pyrimidin-2-ylamino}-5,5-dimethyl-1,3,4,5-tetrahydro-benzo[b]azepin-2-one]: the IC50 was below 100 nM in assay [1] and 1000 to 10000 nM in assay [2].
Turning to `CNC(=O)c1cccc(F)c1Nc1nc(Nc2ccc3c(c2)N(C(C)C)CCCC3(C)C)ncc1Cl` [Example 1626, 2-[5-Chloro-2-(1-isopropyl-5,5-dimethyl-2,3,4,5-tetrahydro-1H-benzo[b]azepin-8-ylamino)-pyrimidin-4-ylamino]-3-fluoro-N-methyl-benzamide], the IC50 in assay [1] and in assay [2] was 100 to 1000 nM in each case.
Consider `C#CCNC(=O)c1cccc(F)c1Nc1nc(Nc2ccc3c(c2)N(C(C)C)CCCC3(C)C)ncc1Cl` [Example 1627, 2-[5-Chloro-2-(1-isopropyl-5,5-dimethyl-2,3,4,5-tetrahydro-1H-benzo[b]azepin-8-ylamino)-pyrimidin-4-ylamino]-3-fluoro-N-prop-2-ynyl-benzamide], for which the IC50 in assay [1] and in assay [2] was 1000 to 10000 nM throughout.
`CC(C)N1CCCC(C)(C)c2ccc(Nc3ncc(Cl)c(N[C@H]4[C@@H](C(N)=O)[C@@H]5C=C[C@H]4C5)n3)cc21` [Example 1628, (1S,2S,3R,4R)-3-[5-Chloro-2-(1-isopropyl-5,5-dimethyl-2,3,4,5-tetrahydro-1H-benzo[b]azepin-8-ylamino)-pyrimidin-4-ylamino]-bicyclo[2.2.1]hept-5-ene-2-carboxylic acid amide]: the figures for the IC50 in assay [1] and in assay [2] were below 100 nM and above 10000 nM, respectively.
For `COc1cc(N2CCOCC2)ccc1Nc1nc(Nc2ccc3c(c2)N(C(C)C)CCCC3(C)C)ncc1Cl` [Example 1629, 5-Chloro-N*2*-(1-isopropyl-5,5-dimethyl-2,3,4,5-tetrahydro-1H-benzo[b]azepin-8-yl)-N*4*-(2-methoxy-4-morpholin-4-yl-phenyl)-pyrimidine-2,4-diamine], the results for the IC50 in assay [1] and in assay [2] were 100 to 1000 nM and above 10000 nM, respectively.
Turning to `CNC(=O)c1cccc(F)c1Nc1nc(Nc2ccc3c(c2)N(C(=O)CN(C)C)CCCC3(C)C)ncc1Cl` [Example 1630, 2-{5-Chloro-2-[1-(2-dimethylamino-acetyl)-5,5-dimethyl-2,3,4,5-tetrahydro-1H-benzo[b]azepin-8-ylamino]-pyrimidin-4-ylamino}-3-fluoro-N-methyl-benzamide], the IC50 in assay [1] and in assay [2] was 100 to 1000 nM throughout.
With `C#CCNC(=O)c1cccc(F)c1Nc1nc(Nc2ccc3c(c2)N(C(=O)CN(C)C)CCCC3(C)C)ncc1Cl` [Example 1631, 2-{5-Chloro-2-[1-(2-dimethylamino-acetyl)-5,5-dimethyl-2,3,4,5-tetrahydro-1H-benzo[b]azepin-8-ylamino]-pyrimidin-4-ylamino}-3-fluoro-N-prop-2-ynyl-benzamide], the IC50 in assay [1] and in assay [2] was 100 to 1000 nM in each case.
With `CCN1CCCC(C)(C)c2ccc(Nc3ncc(Cl)c(Nc4c(F)cccc4C(=O)NC)n3)cc21` [Example 1632, 2-[5-Chloro-2-(1-ethyl-5,5-dimethyl-2,3,4,5-tetrahydro-1H-benzo[b]azepin-8-ylamino)-pyrimidin-4-ylamino]-3-fluoro-N-methyl-benzamide], the IC50 in assay [1] and in assay [2] was 100 to 1000 nM throughout.
`C#CCNC(=O)c1cccc(F)c1Nc1nc(Nc2ccc3c(c2)N(CC)CCCC3(C)C)ncc1Cl` [Example 1633, 2-[5-Chloro-2-(1-ethyl-5,5-dimethyl-2,3,4,5-tetrahydro-1H-benzo[b]azepin-8-ylamino)-pyrimidin-4-ylamino]-3-fluoro-N-prop-2-ynyl-benzamide]: the IC50 in assay [1] and in assay [2] was 100 to 1000 nM each time.
Turning to `CCN1CCCC(C)(C)c2ccc(Nc3ncc(Cl)c(N[C@H]4[C@@H](C(N)=O)[C@@H]5C=C[C@H]4C5)n3)cc21` [Example 1634, (1S,2S,3R,4R)-3-[5-Chloro-2-(1-ethyl-5,5-dimethyl-2,3,4,5-tetrahydro-1H-benzo[b]azepin-8-ylamino)-pyrimidin-4-ylamino]-bicyclo[2.2.1]hept-5-ene-2-carboxylic acid amide], the IC50 in assay [1] was below 100 nM; in assay [2], 1000 to 10000 nM.
For the molecule `CCN1CCCC(C)(C)c2ccc(Nc3ncc(Cl)c(Nc4ccc(N5CCOCC5)cc4OC)n3)cc21` [Example 1635, 5-Chloro-N*2*-(1-ethyl-5,5-dimethyl-2,3,4,5-tetrahydro-1H-benzo[b]azepin-8-yl)-N*4*-(2-methoxy-4-morpholin-4-yl-phenyl)-pyrimidine-2,4-diamine], the IC50 is 100 to 1000 nM in assay [1] and above 10000 nM in assay [2].
For `CC(=O)NC1CC(C)(C)c2ccc(Nc3ncc(Cl)c(Nc4c(F)cccc4C(=O)NCC#N)n3)cc2NC1=O` (centres unmarked) [Example 1636, 2-[2-(3-Acetylamino-5,5-dimethyl-2-oxo-2,3,4,5-tetrahydro-1H-benzo[b]azepin-8-ylamino)-5-chloro-pyrimidin-4-ylamino]-N-cyanomethyl-3-fluoro-Benzamide], the IC50 in assay [1] and in assay [2] was below 100 nM in each case.
On to `COCC(=O)NC1CC(C)(C)c2ccc(Nc3ncc(Cl)c(Nc4c(F)cccc4C(=O)NCC#N)n3)cc2NC1=O` (centres unmarked) [Example 1637, 2-{5-Chloro-2-[3-(2-methoxy-acetylamino)-5,5-dimethyl-2-oxo-2,3,4,5-tetrahydro-1H-benzo[b]azepin-8-ylamino]-pyrimidin-4-ylamino}-N-cyanomethyl-3-fluoro-benzamide], for which the IC50 in assay [1] and in assay [2] was below 100 nM each time.
On to `CNC(=O)c1cccc(F)c1Nc1nc(Nc2ccc3c(c2)N(CCN(C)C)CCCC3(C)C)ncc1Cl` [Example 1638, 2-{5-Chloro-2-[1-(2-dimethylamino-ethyl)-5,5-dimethyl-2,3,4,5-tetrahydro-1H-benzo[b]azepin-8-ylamino]-pyrimidin-4-ylamino}-3-fluoro-N-methyl-benzamide], for which the IC50 in assay [1] and in assay [2] was below 100 nM in each case.
For `C#CCNC(=O)c1cccc(F)c1Nc1nc(Nc2ccc3c(c2)N(CCN(C)C)CCCC3(C)C)ncc1Cl` [Example 1639, 2-{5-Chloro-2-[1-(2-dimethylamino-ethyl)-5,5-dimethyl-2,3,4,5-tetrahydro-1H-benzo[b]azepin-8-ylamino]-pyrimidin-4-ylamino}-3-fluoro-N-prop-2-ynyl-benzamide], the IC50 in assay [1] is below 100 nM; in assay [2] it was 100 to 1000 nM.
The corresponding values for `CN(C)CCN1CCCC(C)(C)c2ccc(Nc3ncc(Cl)c(N[C@H]4[C@@H](C(N)=O)[C@@H]5C=C[C@H]4C5)n3)cc21` [Example 1640, (1S,2S,3R,4R)-3-{5-Chloro-2-[1-(2-dimethylamino-ethyl)-5,5-dimethyl-2,3,4,5-tetrahydro-1H-benzo[b]azepin-8-ylamino]-pyrimidin-4-ylamino}-bicyclo[2.2.1]hept-5-ene-2-carboxylic acid amide] are below 100 nM and below 100 nM.
For the molecule `COc1cc(N2CCOCC2)ccc1Nc1nc(Nc2ccc3c(c2)N(CCN(C)C)CCCC3(C)C)ncc1Cl` [Example 1641, 5-Chloro-N*2*-[1-(2-dimethylamino-ethyl)-5,5-dimethyl-2,3,4,5-tetrahydro-1H-benzo[b]azepin-8-yl]-N*4*-(2-methoxy-4-morpholin-4-yl-phenyl)-pyrimidine-2,4-diamine], the values for the IC50 in assay [1] and in assay [2] were below 100 nM and 1000 to 10000 nM, respectively.
The matching figures for `CCN1C(=O)C(NC(=O)C(F)(F)F)CC(C)(C)c2ccc(Nc3ncc(Cl)c(Nc4c(F)cccc4C(=O)NC)n3)cc21` (centres unmarked) [Example 1642, 2-{5-Chloro-2-[1-ethyl-5,5-dimethyl-2-oxo-3-(2,2,2-trifluoro-acetylamino)-2,3,4,5-tetrahydro-1H-benzo[b]azepin-8-ylamino]-pyrimidin-4-ylamino}-3-fluoro-N-methyl-benzamide]: 100 to 1000 nM and below 100 nM.
`CCN1C(=O)C(NC(C)=O)CC(C)(C)c2ccc(Nc3ncc(Cl)c(Nc4c(F)cccc4C(=O)NC)n3)cc21` (centres unmarked) [Example 1643, 2-[2-(3-Acetylamino-1-ethyl-5,5-dimethyl-2-oxo-2,3,4,5-tetrahydro-1H-benzo[b]azepin-8-ylamino)-5-chloro-pyrimidin-4-ylamino]-3-fluoro-N-methyl-benzamide]: the IC50 in assay [1] is 100 to 1000 nM; in assay [2], below 100 nM.

(Values after patent US8148391B2 (Cephalon, Inc., priority 2006, dated 2012).)
